Assay results: ChEMBL document CHEMBL1124834, “5-HT1 and 5-HT2 binding profiles of the serotonergic agents alpha-methylserotonin and 2-methylserotonin” (J Med Chem, 1990)

How the values were obtained:
[1] = target: T1, 5-hydroxytryptamine receptor 1A (Rattus norvegicus, UniProt P19327)
T1 sequence (P19327 whole entry): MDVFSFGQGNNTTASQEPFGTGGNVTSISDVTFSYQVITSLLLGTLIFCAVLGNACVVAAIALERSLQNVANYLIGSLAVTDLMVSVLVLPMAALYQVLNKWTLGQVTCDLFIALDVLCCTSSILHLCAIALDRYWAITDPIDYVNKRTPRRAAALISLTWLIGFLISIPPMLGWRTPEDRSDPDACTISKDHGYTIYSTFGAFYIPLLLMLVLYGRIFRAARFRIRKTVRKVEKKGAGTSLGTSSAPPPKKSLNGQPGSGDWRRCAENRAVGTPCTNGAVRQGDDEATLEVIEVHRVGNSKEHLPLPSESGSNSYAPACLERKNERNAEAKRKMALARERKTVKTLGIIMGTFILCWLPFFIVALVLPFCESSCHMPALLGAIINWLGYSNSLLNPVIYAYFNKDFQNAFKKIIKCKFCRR

[2] = target: 5-hydroxytryptamine receptor 1B (Rattus norvegicus, UniProt P28564)
[3] = target: T2, 5-hydroxytryptamine receptor 2C (Rattus norvegicus, UniProt P08909)
T2 sequence (P08909 whole entry): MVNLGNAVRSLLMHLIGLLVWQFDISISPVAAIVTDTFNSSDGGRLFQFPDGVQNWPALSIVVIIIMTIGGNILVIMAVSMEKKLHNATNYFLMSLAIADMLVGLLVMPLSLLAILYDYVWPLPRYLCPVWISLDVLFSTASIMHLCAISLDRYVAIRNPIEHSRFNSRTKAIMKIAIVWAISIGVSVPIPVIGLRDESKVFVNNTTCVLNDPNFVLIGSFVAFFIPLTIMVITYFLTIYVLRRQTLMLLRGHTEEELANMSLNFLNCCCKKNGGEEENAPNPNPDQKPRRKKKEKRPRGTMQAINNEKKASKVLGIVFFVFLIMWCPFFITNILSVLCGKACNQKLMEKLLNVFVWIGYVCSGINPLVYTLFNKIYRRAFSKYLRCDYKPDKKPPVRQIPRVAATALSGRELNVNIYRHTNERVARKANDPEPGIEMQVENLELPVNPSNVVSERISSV

[4] = target: 5-hydroxytryptamine receptor 1E (Homo sapiens, UniProt P28566)
[5] = target: Serotonin 2 (5-HT2) receptor (Rattus norvegicus, UniProt P30994+P08909+P14842)

Sequence of 5-hydroxytryptamine receptor 1B (P28564 whole entry): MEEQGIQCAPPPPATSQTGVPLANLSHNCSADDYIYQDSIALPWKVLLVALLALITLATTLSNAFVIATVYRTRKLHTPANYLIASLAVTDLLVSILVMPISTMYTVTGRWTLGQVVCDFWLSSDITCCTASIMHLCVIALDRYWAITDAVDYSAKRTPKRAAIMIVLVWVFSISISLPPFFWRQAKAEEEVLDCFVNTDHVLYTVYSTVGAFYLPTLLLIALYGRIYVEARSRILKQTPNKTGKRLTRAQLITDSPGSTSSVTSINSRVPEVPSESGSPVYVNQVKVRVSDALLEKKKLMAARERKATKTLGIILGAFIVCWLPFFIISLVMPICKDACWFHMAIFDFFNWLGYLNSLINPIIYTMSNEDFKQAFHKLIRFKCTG
Sequence of 5-hydroxytryptamine receptor 1E (P28566 whole entry): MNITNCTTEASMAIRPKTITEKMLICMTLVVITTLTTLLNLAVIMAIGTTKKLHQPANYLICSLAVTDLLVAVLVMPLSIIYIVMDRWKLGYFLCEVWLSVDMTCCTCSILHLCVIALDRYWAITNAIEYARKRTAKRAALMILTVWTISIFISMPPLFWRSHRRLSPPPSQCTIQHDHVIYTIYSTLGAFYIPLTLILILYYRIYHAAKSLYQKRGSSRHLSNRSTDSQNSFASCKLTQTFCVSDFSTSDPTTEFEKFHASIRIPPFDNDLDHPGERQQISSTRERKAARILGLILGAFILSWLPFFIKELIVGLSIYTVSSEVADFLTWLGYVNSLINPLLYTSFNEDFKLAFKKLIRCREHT

Row | Structure (SMILES) | Ki [1] | Ki [2] | Ki [3] | Ki [4] | Ki [5]
1 | COc1ccc2[nH]c(C)c(CCN)c2c1 | 1300 nM | 800 nM | 690 nM | > 10000 nM | > 10000 nM
2 | Cc1[nH]c2ccc(O)cc2c1CCN | 1200 nM | 520 nM | 650 nM | > 10000 nM | > 10000 nM
